As usually defined, the IC50 is the concentration needed to halve the response being measured.

Each structure is given as a SMILES string. Read-outs that look alike come from different tables or passages of the source.

From patent US10821115B2, “Compounds that inhibit Mcl-1 protein” (priority 2017, dated 2020) come the findings set out here.

In this test the test system is human multiple myeloma cell line, OPM-2. The experiment in a line: Cell viability assay (OPM-2 10 FBS), CellTiter-Glo. Type of test: cell-based. The essentials: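 Serially diluted test compounds are incubated 16 h with cells (3000/well) in RPMI 1640 supplemented with 10% FBS. Viability is then measured by luminescence and IC50 calculated by 4-parameter logistic fit.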

Setting [1] is: Homo sapiens, OPM-2, 16 h, read-out: OPM-2 10% FBS IC50 IP, OPM-2 cells, 10% FBS, 16 h incubation.
Where [2] appears, read: Homo sapiens, OPM-2, 16 h, read-out: OPM-2 10% FBS IC50 IP, OPM-2 cells, 10% FBS, 16 h, CellTiter-Glo.
Setting [3] is: read-out: OPM-2 10% FBS IC50 IP, OPM-2 cells, 10% FBS, 16 h incubation.

As for `CC(C)N(CCO)C[C@]1(O)/C=C/C[C@H](C)[C@@H](C)S(=O)(=O)NC(=O)c2ccc3c(c2)N(C[C@@H]2CC[C@H]21)C[C@@]1(CCCc2cc(Cl)ccc21)CO3` [Example 126, (1 S,3′R,6′R,7′S,8′E,11′S,12′R)-6-chloro-7′-hydroxy-7′-(((2-hydroxyethyl)(1-methylethyl)amino)methyl)-11′,12′-dimethyl-3,4-dihydro-2H, 15′H-spiro[naphthalene-1,22′-[20]oxa[13]thia[1,14]diazatetracyclo[14.7.2.0-3,6˜.0˜19,24˜]pentacosa[8,16,18,24]tetraen]-15′-one 13′,13′-dioxide], the IC50 under setting [1] was determined as 0.9 µM.
On to `CO[C@@]1(CNCCN2CCOCC2)/C=C/C[C@H](C)[C@@H](C)S(=O)(=O)NC(=O)c2ccc3c(c2)N(C[C@@H]2CC[C@H]21)C[C@@]1(CCCc2cc(Cl)ccc21)CO3` [Example 34, (1 S,3′R,6′R,7′S,8′E,11′S,12′R)-6-chloro-7′-methoxy-11′,12′-dimethyl-7′-(((2-(4-morpholinyl)ethyl)amino)methyl)-3,4-dihydro-2H, 15′H-spiro[naphthalene-1,22′-[20]oxa[13]thia[1,14]diazatetracyclo[14.7.2.0˜3,6˜.0˜19,24˜]pentacosa[8,16,18,24]tetraen]-15′-one 13′,13′-dioxide], for which, under setting [1], the IC50 was 0.379 µM.
On the same count and under the same terms, to `COCC[C@@H]1[C@@H](C)C/C=C/[C@@](CN2CCN(C(C)C)[C@H](C)C2)(OC)[C@@H]2CC[C@H]2CN2C[C@@]3(CCCc4cc(Cl)ccc43)COc3ccc(cc32)C(=O)NS1(=O)=O` [Example 12, (1S,3′R,6′R,7′R,8′E,11′S,12′R)-6-chloro-7′-methoxy-12′-(2-methoxyethyl)-11′-methyl-7′-(((3R)-3-methyl-4-(1-methylethyl)-1-piperazinyl)methyl)-3,4-dihydro-2H, 15′H-spiro[naphthalene-1,22′-[20]oxa[13]thia[1,14]diazatetracyclo[14.7.2.0-3,6˜.0˜19,24˜]pentacosa[8,16,18,24]tetraen]-15′-one 13′,13′-dioxide] belongs 0.022 µM.
Consider `COC(=O)CNC(=O)C[C@]1(OC)/C=C/C[C@H](C)[C@@H](C)S(=O)(=O)NC(=O)c2ccc3c(c2)N(C[C@@H]2CC[C@H]21)C[C@@]1(CCCc2cc(Cl)ccc21)CO3` [Example 100550, methyl N-(((1S,3′R,6′R,7′S,8′E,11′S,12′R)-6-chloro-7′-methoxy-11′,12′-dimethyl-13′,13′-dioxido-15′-oxo-3,4-dihydro-2H-spiro[naphthalene-1,22′-[20]oxa[13]thia[1,14]diazatetracyclo [14.7.2.0~3,6~.0~19,24~]pentacosa[8,16,18,24]tetraen]-7′-yl)acetyl)glycinate], for which the IC50 under setting [2] turned out to be 6.86 µM.
As for `CO[C@@]1(CN2CCN(C3COC3)CC2)/C=C/C[C@H](C)[C@@H](C)S(=O)(=O)NC(=O)c2ccc3c(n2)N(C[C@@H]2CC[C@H]21)C[C@@]1(CCCc2cc(Cl)ccc21)CO3` [Example 19, (1 S,3′R,6′R,7′S,8′E,11′S,12′R)-6-chloro-7′-methoxy-11′,12′-dimethyl-7′-((4-(3-oxetanyl)-1-piperazinyl)methyl)-3,4-dihydro-2H, 15′H-spiro[naphthalene-1,22′-[20]oxa[13]thia[1,14,25]triazatetracyclo[14.7.2.0-3,6˜.0˜19,24˜]pentacosa[8,16,18,24]tetraen]-15′-one 13′,13′-dioxide], under setting [1], the IC50 stood at 0.047 µM.
On the same count and under the same terms, to `CCO[C@@]1(CN2CCN(C3(C)COC3)CC2)/C=C/C[C@H](C)[C@@H](C)S(=O)(=O)NC(=O)c2ccc3c(c2)N(C[C@@H]2CC[C@H]21)C[C@@]1(CCCc2cc(Cl)ccc21)CO3` [Example 311, (1S,3′R,6′R,7′S,8′E,11′S,12′R)-6-chloro-7′-ethoxy-11′,12′-dimethyl-7′-((4-(3-methyl-3-oxetanyl)-1-piperazinyl)methyl)-3,4-dihydro-2H,15′H-spiro[naphthalene-1,22′-[20]oxa[13]thia[1,14]diazatetracyclo [14.7.2.0~3,6~.0~19,24~]pentacosa[8,16,18,24]tetraen]-15′-one 13′,13′-dioxide] belongs 0.362 µM.
Turning to `COCC(COC)N1CCN(C[C@]2(OC)/C=C/C[C@H](C)[C@@H](C)S(=O)(=O)NC(=O)c3ccc4c(c3)N(C[C@@H]3CC[C@H]32)C[C@@]2(CCCc3cc(Cl)ccc32)CO4)CC1` [Example 287, (1S,3′R,6′R,7′S,8′E,11′S,12′R)-6-chloro-7′-methoxy-7′-((4-(2-methoxy-1-(methoxymethyl)ethyl)-1-piperazinyl)methyl)-11′,12′-dimethyl-3,4-dihydro-2H,15′H-spiro[naphthalene-1,22′-[20]oxa[13]thia[1,14]diazatetracyclo [14.7.2.0~3,6~.0~19,24~]pentacosa[8,16,18,24]tetraen]-15′-one 13′,13′-dioxide], the IC50 under setting [1] came to 0.05 µM.
`C[C@@H]1[C@@H](C)CCC[C@](CO)(CN2CCOCC2)[C@@H]2CC[C@H]2CN2C[C@@]3(CCCc4cc(Cl)ccc43)COc3ccc(cc32)C(=O)NS1(=O)=O` [Example 100406, (1S,3′R,6′R,7′R,11′S,12′R)-6-chloro-7′-(hydroxymethyl)-11′,12′-dimethyl-7′-(4-morpholinylmethyl)-3,4-dihydro-2H,15′H-spiro[naphthalene-1,22′-[20]oxa[13]thia[1,14]diazatetracyclo [14.7.2.0~3,6~.0~19,24~]pentacosa[16,18,24]trien]-15′-one 13′,13′-dioxide]: the IC50 under setting [2] turned out to be 0.747 µM.
Same read-out and setting: the figure for `CO[C@@]1(CC(=O)C2CC2)/C=C/C[C@H](C)[C@@H](C)S(=O)(=O)NC(=O)c2ccc3c(c2)N(C[C@@H]2CC[C@H]21)C[C@@]1(CCCc2cc(Cl)ccc21)CO3` [Example 100443, (1S,3′R,6′R,7′S,8′E,11′S,12′R)-6-chloro-7′-(2-cyclopropyl-2-oxoethyl)-7′-methoxy-11′,12′-dimethyl-3,4-dihydro-2H,15′H-spiro[naphthalene-1,22′-[20]oxa[13]thia[1,14]diazatetracyclo [14.7.2.0~3,6~.0~19,24~]pentacosa[8,16,18,24]tetraen]-15′-one 13′,13′-dioxide] is 0.156 µM.
Turning to `CO[C@@]1(CN2CCN(C3CCOCC3)CC2)/C=C/C[C@H](C)[C@@H](C)S(=O)(=O)NC(=O)c2ccc3c(c2)N(C[C@@H]2CC[C@H]21)C[C@@]1(CCCc2cc(Cl)ccc21)CO3` [Example 262, (1S,3′R,6′R,7′S,8′E,11′S,12′R)-6-chloro-7′-methoxy-11′,12′-dimethyl-7′-((4-(tetrahydro-2H-pyran-4-yl)-1-piperazinyl)methyl)-3,4-dihydro-2H,15′H-spiro[naphthalene-1,22′-[20]oxa[13]thia[1,14]diazatetracyclo [14.7.2.0~3,6~.0~19,24~]pentacosa[8,16,18,24]tetraen]-15′-one 13′,13′-dioxide], under setting [1], the IC50 was 0.089 µM.
For the compound `C[C@@H]1[C@@H](C)C/C=C/[C@@](O)(CN2CCOC[C@@H]2Cn2ccnc2)[C@@H]2CC[C@H]2CN2C[C@@]3(CCCc4cc(Cl)ccc43)COc3ccc(cc32)C(=O)NS1(=O)=O` [Example 100, (1 S,3′R,6′R,7′S,8′E,11′S, 12′R)-6-chloro-7′-hydroxy-7′-(((3S)-3-(1H-imidazol-1-ylmethyl)-4-morpholinyl)methyl)-11′,12′-dimethyl-3,4-dihydro-2H, 15′H-spiro[naphthalene-1,22′-[20]oxa[13]thia[1,14]diazatetracyclo[14.7.2.0-3,6˜.0˜19,24˜]pentacosa[8,16,18,24]tetraen]-15′-one 13′,13′-dioxide], the IC50 under setting [1] turned out to be 1.65 µM.
For `CO[C@@]1(CN2CCN(CC(CO)CO)CC2)/C=C/C[C@H](C)[C@@H](C)S(=O)(=O)NC(=O)c2ccc3c(c2)N(C[C@@H]2CC[C@H]21)C[C@@]1(CCCc2cc(Cl)ccc21)CO3` [Example 310, (1S,3′R,6′R,7′S,8′E,11′S,12′R)-6-chloro-7′-((4-(3-hydroxy-2-(hydroxymethyl)propyl)-1-piperazinyl)methyl)-7′-methoxy-11′,12′-dimethyl-3,4-dihydro-2H,15′H-spiro[naphthalene-1,22′-[20]oxa[13]thia[1,14]diazatetracyclo [14.7.2.0~3,6~.0~19,24~]pentacosa[8,16,18,24]tetraen]-15′-one 13′,13′-dioxide], the IC50 under setting [1] amounted to 0.517 µM.
As to `CO[C@]1(CN2CCN3CCN(C(C)=O)C[C@@H]3C2)/C=C/C[C@H](C)[C@@H](C)S(=O)(=O)NC(=O)c2ccc3c(c2)N(C[C@@H]2CC[C@H]21)C[C@@]1(CCCc2cc(Cl)ccc21)CO3` [Example 218], the IC50 under setting [3] came to 0.092 µM.
Still for that read-out and setting: the figure for `CCO[C@]1(CN2CCN(C(C)C)[C@H](C)C2)/C=C/C[C@H](C)[C@@H](C)S(=O)(=O)NC(=O)c2ccc3c(c2)N(C[C@@H]2CC[C@H]21)C[C@@]1(CCCc2cc(Cl)ccc21)CO3` [Example 9, (1 S,3′R,6′R,7′R,8′E,11′S, 12′R)-6-CHLORO-7′-ETHOXY-11′,12′-DIMETHYL-7′-(((3R)-3-METHYL-4-(1-METHYLETHYL)-1-PIPERAZINYL)METHYL)-3,4-DIHYDRO-2H, 15′H-SPIRO[NAPHTHALENE-1,22′-[20]OXA[13]THIA[1,14]DIAZATETRACYCLO[14.7.2.0-3,6˜.0˜19,24˜]PENT ACOSA[8,16,18,24]TETRAEN]-15′-ONE 13′,13′-DIOXIDE] is 0.05 µM.
As for `CC[C@@H]1CC/C=C/[C@@](CN2CCN3CCCC[C@@H]3C2)(OC)[C@@H]2CC[C@H]2CN2C[C@@]3(CCCc4cc(Cl)ccc43)COc3ccc(cc32)C(=O)N(C)S1(=O)=O` [Example 33, (1 S,3′R,6′R,7′R,8′E,12′R)-6-chloro-12′-ethyl-7′-methoxy-14′-methyl-7′-((9aR)-octahydro-2H-pyrido[1,2-a]pyrazin-2-ylmethyl)-3,4-dihydro-2H,15′H-spiro[naphthalene-1,22′-[20]oxa[13]thia[1,14]diazatetracyclo[14.7.2.0-3,6˜.0˜19,24˜]pentacosa[8,16,18,24]tetraen]-15′-one 13′,13′-dioxide], the IC50 under setting [1] came to 5.57 µM.
On to `CO[C@@]1(CN2CCN3CCN(S(C)(=O)=O)C[C@@H]3C2)/C=C/C[C@H](C)[C@@H](C)S(=O)(=O)NC(=O)c2ccc3c(c2)N(C[C@@H]2CC[C@H]21)C[C@@]1(CCCc2cc(Cl)ccc21)CO3` [Example 228], for which the IC50 under setting [1] stood at 0.0931 µM.
